Results on 26 compounds are retold here after ChEMBL document CHEMBL3992519 (J Med Chem, 2017).

In data set [1] the target is Kappa-type opioid receptor (Homo sapiens, UniProt P41145). In words: Displacement of [3H]U69,593 from human kappa opioid receptor expressed in CHO cell membranes by micro-beta scintillation counting method. Background: Displacement assays read how much labelled ligand stays bound in the presence of the test substance.
Data set [2] has as its target Mu-type opioid receptor (Homo sapiens, UniProt P35372). Briefly: Displacement of [3H]DAMGO from human mu opioid receptor expressed in CHO cell membranes by micro-beta scintillation counting method.
Data set [3] deals with Delta-type opioid receptor (Homo sapiens, UniProt P41143). Briefly: Displacement of [3H]DPDPE from human delta opioid receptor expressed in CHO cell membranes by micro-beta scintillation counting method.
Sequence of Delta-type opioid receptor (P41143 whole entry): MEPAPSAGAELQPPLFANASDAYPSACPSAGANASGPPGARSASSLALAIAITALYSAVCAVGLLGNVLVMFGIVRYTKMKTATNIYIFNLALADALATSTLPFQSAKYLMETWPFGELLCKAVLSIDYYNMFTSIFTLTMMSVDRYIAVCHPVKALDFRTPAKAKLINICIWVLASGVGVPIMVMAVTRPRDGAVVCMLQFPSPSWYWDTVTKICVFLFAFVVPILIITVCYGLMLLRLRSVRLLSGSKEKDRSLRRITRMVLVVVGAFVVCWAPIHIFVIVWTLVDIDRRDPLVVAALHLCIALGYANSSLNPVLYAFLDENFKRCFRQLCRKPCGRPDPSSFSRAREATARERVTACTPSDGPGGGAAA
A short description of data set [4]: Solubility of the compound in water. In kind it is physicochemical. To be noted: buffer.
Data set [5] concerns the target T1, Orexin/Hypocretin receptor type 1 (Homo sapiens, UniProt O43613).
T1 sequence (O43613 whole entry): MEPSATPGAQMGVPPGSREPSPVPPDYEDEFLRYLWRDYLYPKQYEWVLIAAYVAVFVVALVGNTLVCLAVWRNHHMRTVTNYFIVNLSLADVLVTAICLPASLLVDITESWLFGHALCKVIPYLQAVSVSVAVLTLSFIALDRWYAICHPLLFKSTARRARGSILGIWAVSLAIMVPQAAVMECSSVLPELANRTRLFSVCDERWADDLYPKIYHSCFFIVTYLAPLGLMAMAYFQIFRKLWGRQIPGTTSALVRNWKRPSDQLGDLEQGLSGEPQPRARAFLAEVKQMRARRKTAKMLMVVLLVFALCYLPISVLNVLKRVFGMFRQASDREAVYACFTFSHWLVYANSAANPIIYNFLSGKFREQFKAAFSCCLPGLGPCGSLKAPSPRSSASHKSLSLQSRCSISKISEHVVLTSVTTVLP
In words: Antagonist activity at human OX1R expressed in CHOK1 cells assessed as inhibition of orexin A-induced intracellular calcium level preincubated for 15 mins followed by orexin A addition by Fura-2-AM dye based fluorescence assay.

Data set [6] in a line: Selectivity index, ratio of IC50 for human OX2R expressed in CHOK1 cells to IC50 for human OX1R expressed in CHOK1 cells.
Data set [7] is described as follows: Solubility of the compound in saline. It counts as physicochemical. The settings on record: buffer.

The structures appear in SMILES notation.

Sequence of Mu-type opioid receptor (P35372 whole entry): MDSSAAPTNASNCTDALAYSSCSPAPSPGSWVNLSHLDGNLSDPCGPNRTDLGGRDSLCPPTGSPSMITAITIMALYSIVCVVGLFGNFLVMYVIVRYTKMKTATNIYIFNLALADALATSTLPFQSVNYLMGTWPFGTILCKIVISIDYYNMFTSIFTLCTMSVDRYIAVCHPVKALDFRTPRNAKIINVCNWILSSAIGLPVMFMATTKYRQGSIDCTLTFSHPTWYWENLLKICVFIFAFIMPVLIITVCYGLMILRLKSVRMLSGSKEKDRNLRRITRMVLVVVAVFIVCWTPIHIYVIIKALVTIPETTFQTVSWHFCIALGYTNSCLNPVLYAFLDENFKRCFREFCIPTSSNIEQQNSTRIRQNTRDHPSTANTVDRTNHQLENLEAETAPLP
Sequence of Kappa-type opioid receptor (P41145 whole entry): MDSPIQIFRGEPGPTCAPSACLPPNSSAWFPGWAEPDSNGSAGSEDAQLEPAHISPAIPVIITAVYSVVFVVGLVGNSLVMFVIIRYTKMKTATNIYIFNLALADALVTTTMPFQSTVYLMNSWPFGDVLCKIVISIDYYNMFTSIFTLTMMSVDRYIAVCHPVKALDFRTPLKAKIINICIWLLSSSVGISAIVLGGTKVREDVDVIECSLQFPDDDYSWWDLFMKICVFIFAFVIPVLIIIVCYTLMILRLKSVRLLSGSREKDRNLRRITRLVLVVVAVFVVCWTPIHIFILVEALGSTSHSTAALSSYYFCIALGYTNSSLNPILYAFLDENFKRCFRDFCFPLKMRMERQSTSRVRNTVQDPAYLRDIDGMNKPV

As for `CN(C)c1ccc(S(=O)(=O)N2CC[C@]34c5c6ccc(O)c5O[C@H]3[C@H](N(C)C(=O)/C=C/c3ccoc3)CC[C@@]4(O)[C@H]2C6)cc1`, the Ki was 200 nM in data set [1], 971 nM in data set [2] and over 1000 nM in data set [3].
For the compound `CN(C(=O)/C=C/c1ccco1)[C@@H]1CC[C@@]2(O)[C@H]3Cc4ccc(O)c5c4[C@@]2(CCN3CC2CC2)[C@H]1O5`, the solubility entry in data set [4] and in data set [7] was “Insoluble” throughout. Moreover, the Ki in data set [5] was 751 nM. Moreover, in data set [6], the “Ratio IC50” value is reported as under 88.4.
On to `COc1ccc2c3c1O[C@H]1[C@H](N(C)C(=O)/C=C/c4ccoc4)CC[C@@]4(O)[C@@H](C2)N(S(=O)(=O)c2ccc(C(F)(F)F)cc2)CC[C@]314`, for which the solubility result in data set [4] and in data set [7] was “Insoluble” each time. For the same compound, in data set [5], the inhibition constant (Ki) stood at 12.6 nM. The “Ratio IC50” value in data set [6] is given as under 88.4.
`COc1ccc2c3c1O[C@H]1[C@H](N(C)C(=O)/C=C/c4ccoc4)CC[C@@]4(O)[C@@H](C2)N(S(=O)(=O)c2ccc(C)cc2)CC[C@]314`: the solubility entry in data set [4] and in data set [7] was “Insoluble” throughout. Further, in data set [5], the Ki stood at 5.85 nM. In addition, the “Ratio IC50” value in data set [6] is under 88.4.
`COc1ccc2c3c1O[C@H]1[C@H](N(C)C(=O)/C=C/c4ccoc4)CC[C@@]4(O)[C@@H](C2)N(S(=O)(=O)c2cccc(Cl)c2)CC[C@]314`: the solubility result in data set [4] and in data set [7] was “Insoluble” each time. Moreover, in data set [5], the Ki is 3.47 nM. In addition, the “Ratio IC50” value in data set [6] is on record as under 88.4.
On to `COc1ccc2c3c1O[C@H]1[C@H](N(C)C(=O)/C=C/c4ccoc4)CC[C@@]4(O)[C@@H](C2)N(S(=O)(=O)c2cccc(C(F)(F)F)c2)CC[C@]314`, for which the solubility entry in data set [4] and in data set [7] was “Insoluble” each time. In addition, the inhibition constant Ki in data set [5] came to 6.19 nM. The “Ratio IC50” value in data set [6] is recorded as under 88.4.
Consider `COc1ccc2c3c1O[C@H]1[C@H](N(C)C(=O)/C=C/c4ccoc4)CC[C@@]4(O)[C@@H](C2)N(C(=O)OC(C)(C)C)CC[C@]314`, for which the Ki is 184 nM in data set [1], 4.15 nM in data set [5], over 1000 nM in data set [2] and over 1000 nM in data set [3]. In addition, the solubility entry in data set [4] and in data set [7] was “Insoluble” throughout. Besides, the “Ratio IC50” value in data set [6] is recorded as under 88.4.
Regarding `COc1ccc2c3c1O[C@H]1[C@H](N(C)C(=O)/C=C/c4ccoc4)CC[C@@]4(O)[C@@H](C2)N(S(=O)(=O)c2ccccc2C)CC[C@]314`, the solubility entry in data set [4] and in data set [7] was “Insoluble” throughout. In addition, the Ki in data set [5] came to 1.7 nM. Besides, the “Ratio IC50” value in data set [6] is on record as under 88.4.
Take `COc1ccc2c3c1O[C@H]1[C@H](N(C)C(=O)/C=C/c4ccoc4)CC[C@@]4(O)[C@@H](C2)N(C(C)=O)CC[C@]314`: the solubility result in data set [4] and in data set [7] was “Insoluble” in each case. The inhibition constant (Ki) in data set [5] was 541 nM. Besides, in data set [6], the “Ratio IC50” value is listed as under 88.4.
Regarding `COc1ccc2c3c1O[C@H]1[C@H](N(C)C(=O)/C=C/c4ccoc4)CC[C@@]4(O)[C@@H](C2)N(S(=O)(=O)c2ccccc2)CC[C@]314`, the Ki in data set [1] is over 1000 nM; in data set [5], 8.14 nM; in data set [2], over 1000 nM; in data set [3] it was over 1000 nM. Besides, the solubility result in data set [4] and in data set [7] was “Insoluble” in each case. The “Ratio IC50” value in data set [6] was under 88.4.
Regarding `COc1ccc2c3c1O[C@H]1[C@H](N(C)C(=O)/C=C/c4ccoc4)CC[C@@]4(O)[C@@H](C2)N(S(=O)(=O)c2ccc(C#N)cc2)CC[C@]314`, the solubility entry in data set [4] and in data set [7] was “Insoluble” each time. Moreover, the Ki in data set [5] came to 13.9 nM. The “Ratio IC50” value in data set [6] is under 88.4.
Take `COc1ccc2c3c1O[C@H]1[C@H](N(C)C(=O)/C=C/c4ccoc4)CC[C@@]4(O)[C@@H](C2)N(S(=O)(=O)c2cccc(C#N)c2)CC[C@]314`: the solubility entry in data set [4] and in data set [7] was “Insoluble” each time. In addition, the Ki in data set [5] was 7.3 nM. For the same compound, the “Ratio IC50” value in data set [6] is under 88.4.
Regarding `COc1ccc2c3c1O[C@H]1[C@H](N(C)C(=O)/C=C/c4ccoc4)CC[C@@]4(O)[C@@H](C2)N(S(=O)(=O)c2ccccc2C(F)(F)F)CC[C@]314`, the solubility entry in data set [4] and in data set [7] was “Insoluble” in each case. Besides, the Ki in data set [5] was determined as 2.05 nM. Besides, the “Ratio IC50” value in data set [6] was under 88.4.
As to `COc1ccc2c3c1O[C@H]1[C@H](N(C)C(=O)/C=C/c4ccoc4)CC[C@@]4(O)[C@@H](C2)N(S(=O)(=O)c2ccc(Cl)cc2)CC[C@]314`, the solubility entry in data set [4] and in data set [7] was “Insoluble” each time. The Ki in data set [5] worked out at 5.13 nM. Further, in data set [6], the “Ratio IC50” value is reported as under 88.4.
Turning to `COc1ccc2c3c1O[C@H]1[C@H](N(C)C(=O)/C=C/c4ccoc4)CC[C@@]4(O)[C@@H](C2)N(S(=O)(=O)c2cccc(N(C)C)c2)CC[C@]314.Cl`, the solubility entry in data set [4] and in data set [7] was “Insoluble” throughout. Besides, the inhibition constant (Ki) in data set [5] amounted to 7.25 nM. The “Ratio IC50” value in data set [6] is on record as under 88.4.
For `COc1ccccc1S(=O)(=O)N1CC[C@]23c4c5ccc(OC)c4O[C@H]2[C@H](N(C)C(=O)/C=C/c2ccoc2)CC[C@@]3(O)[C@H]1C5`, the solubility result in data set [4] and in data set [7] was “Insoluble” throughout. In addition, the Ki in data set [5] worked out at 6.37 nM. The “Ratio IC50” value in data set [6] is under 88.4.
Regarding `COc1cccc(S(=O)(=O)N2CC[C@]34c5c6ccc(OC)c5O[C@H]3[C@H](N(C)C(=O)/C=C/c3ccoc3)CC[C@@]4(O)[C@H]2C6)c1`, the solubility result in data set [4] and in data set [7] was “Insoluble” in each case. The Ki in data set [5] turned out to be 2.44 nM. Moreover, the “Ratio IC50” value in data set [6] was under 88.4.
Regarding `COc1ccc2c3c1O[C@H]1[C@H](N(C)C(=O)/C=C/c4ccoc4)CC[C@@]4(O)[C@@H](C2)N(S(=O)(=O)c2ccccc2N(C)C)CC[C@]314.Cl`, the solubility result in data set [4] and in data set [7] was “Insoluble” throughout. In data set [5], the Ki turned out to be 1.92 nM. Further, in data set [6], the “Ratio IC50” value is recorded as under 88.4.
In the case of `COc1ccc2c3c1O[C@H]1[C@H](N(C)C(=O)/C=C/c4ccoc4)CC[C@@]4(O)[C@@H](C2)N(S(=O)(=O)c2ccccc2C#N)CC[C@]314`, the solubility entry in data set [4] and in data set [7] was “Insoluble” in each case. Further, in data set [5], the Ki came to 1.96 nM. The “Ratio IC50” value in data set [6] was under 88.4.
In the case of `COc1ccc2c3c1O[C@H]1[C@H](N(C)C(=O)/C=C/c4ccoc4)CC[C@@]4(O)[C@@H](C2)N(S(=O)(=O)c2c(C)cc(C)cc2C)CC[C@]314`, the solubility entry in data set [4] and in data set [7] was “Insoluble” in each case. For the same compound, in data set [5], the Ki worked out at 4.16 nM. Moreover, the “Ratio IC50” value in data set [6] is recorded as under 88.4.
For the compound `CN(C(=O)/C=C/c1ccccc1)[C@@H]1CC[C@@]2(O)[C@H]3Cc4ccc(O)c5c4[C@@]2(CCN3CC2CC2)[C@H]1O5.Cl`, the solubility result in data set [4] and in data set [7] was “Insoluble” in each case. In data set [5], the Ki came out at 389 nM. The “Ratio IC50” value in data set [6] is reported as under 88.4.
`COc1ccc2c3c1O[C@H]1[C@H](N(C)C(=O)/C=C/c4ccoc4)CC[C@@]4(O)[C@@H](C2)N(S(=O)(=O)c2cccc([N+](=O)[O-])c2)CC[C@]314`: the solubility entry in data set [4] and in data set [7] was “Insoluble” in each case. The Ki in data set [5] was determined as 5.05 nM. In addition, the “Ratio IC50” value in data set [6] is on record as under 88.4.
On to `COc1ccc2c3c1O[C@H]1[C@H](N(C)C(=O)/C=C/c4ccoc4)CC[C@@]4(O)[C@@H](C2)N(S(=O)(=O)c2cccc(C)c2)CC[C@]314`, for which the solubility result in data set [4] and in data set [7] was “Insoluble” throughout. In addition, the inhibition constant (Ki) in data set [5] was 2.98 nM. The “Ratio IC50” value in data set [6] is on record as under 88.4.
On to `COc1ccc2c3c1O[C@H]1[C@H](N(C)C(=O)/C=C/c4ccoc4)CC[C@@]4(O)[C@@H](C2)N(S(=O)(=O)c2ccccc2Br)CC[C@]314`, for which the solubility entry in data set [4] and in data set [7] was “Insoluble” throughout. The inhibitory constant (Ki) in data set [5] is 2.1 nM. For the same compound, in data set [6], the “Ratio IC50” value is on record as under 88.4.
Turning to `CCCCS(=O)(=O)N1CC[C@]23c4c5ccc(OC)c4O[C@H]2[C@H](N(C)C(=O)/C=C/c2ccoc2)CC[C@@]3(O)[C@H]1C5`, the solubility result in data set [4] and in data set [7] was “Insoluble” each time. Moreover, in data set [5], the Ki stood at 5.94 nM. For the same compound, the “Ratio IC50” value in data set [6] is under 88.4.
As to `COc1ccc2c3c1O[C@H]1[C@H](N(C)C(=O)/C=C/c4ccccn4)CC[C@@]4(O)[C@@H](C2)N(S(=O)(=O)c2ccccc2N(C)C)CC[C@]314.O=S(=O)(O)O.O=S(=O)(O)O`, the inhibition constant Ki in data set [1], in data set [2] and in data set [3] was over 1000 nM in each case.

In general, Ki refers to a dissociation constant, usually derived from enzyme kinetics or from competition with a known ligand.
